These results are taken from PubChem BioAssay AID192 (DTP/NCI, 2004).

The structures appear in SMILES notation. Inconclusive results and toxic doses are left out.

The test system of this test is BDF1 mice, B16 melanoma ip, median survival T/C. In words: NCI In Vivo Anticancer Drug Screen. Data for tumor model B16 Melanoma (intraperitoneal) in B6D2F1 (BDF1) mice. The following applies: endpoint: median survival time, higher = longer survival. The procedure, abridged: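 Compounds were tested in mice carrying transplantable tumors. Survival or tumor size was recorded, and each value is the treated-group measurement (T) divided by that of the vehicle-treated control group (C).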

Where [1] appears, read: dose: 12.5 mg/kg/injection, schedule: Q01DX009 (ip), vehicle: saline.
[2] abbreviates: dose: 25.0 mg/kg/injection, schedule: Q01DX009 (ip), vehicle: saline.
Setting [3] is: dose: 100.0 mg/kg/injection, schedule: Q01DX009 (ip), vehicle: Klucel (hydroxypropylcellulose) (HPC).
The mark [4] stands for this setting: dose: 200.0 mg/kg/injection, schedule: Q01DX009 (ip), vehicle: Klucel (hydroxypropylcellulose) (HPC).
Setting [5] is: dose: 12.5 mg/kg/injection, schedule: Q01DX009 (ip), vehicle: saline with Tween-80.
The mark [6] stands for this setting: dose: 25.0 mg/kg/injection, schedule: Q01DX009 (ip), vehicle: saline with Tween-80.
Setting [7] is: dose: 50.0 mg/kg/injection, schedule: Q01DX009 (ip), vehicle: saline with Tween-80.
Setting [8] is: dose: 100.0 mg/kg/injection, schedule: Q01DX009 (ip), vehicle: saline with Tween-80.
Where [9] appears, read: dose: 50.0 mg/kg/injection, schedule: Q01DX009 (ip), vehicle: saline.
Where [10] appears, read: dose: 100.0 mg/kg/injection, schedule: Q01DX009 (ip), vehicle: saline.
Where [11] appears, read: dose: 200.0 mg/kg/injection, schedule: Q01DX009 (ip), vehicle: saline.

For `CC(=N\O)/C(C)=N/O.CC(=N\O)/C(C)=N/O.[Ni]`, the T/C by setting is: (dose: 3.0 mg/kg/injection, schedule: Q01DX009 (ip), vehicle: saline with Tween-80) 93 % of control; (dose: 6.0 mg/kg/injection, schedule: Q01DX009 (ip), vehicle: saline with Tween-80) 87 % of control.
Turning to `CCNCCCCCCNCC`, the T/C is, setting by setting: under setting [1], 98 % of control; under setting [2], 90 % of control.
Regarding `O=C(/C=C/C(=O)Oc1ccc(Cl)cc1)Oc1ccc(Cl)cc1`, the T/C was 94 % of control under setting [3] and 94 % of control under setting [4].
For the compound `CC[C@]12CN3CCc4c([nH]c5ccccc45)[C@@](C(=O)OC)(c4cc5c(cc4OC)N(C=O)[C@H]4[C@@](O)(C(=O)OC)[C@H](OC(C)=O)[C@]6(CC)C=CCN7CC[C@]54[C@@H]76)C[C@H](C3)[C@H]1O2`, the T/C (dose: 4.0 mg/kg/injection, schedule: Q01DX011 (ip), vehicle: saline) is 159 % of control.
For `COCc1ccc(COC)cc1`, the T/C by setting is: (dose: 100.0 mg/kg/injection, schedule: Q04DX003 (ip), vehicle: saline) 102 % of control; (dose: 200.0 mg/kg/injection, schedule: Q04DX003 (ip), vehicle: saline) 102 % of control; (dose: 400.0 mg/kg/injection, schedule: Q04DX003 (ip), vehicle: saline) 100 % of control.
As to `O=CC=O`, the T/C under setting [5] was 104 % of control, the T/C under setting [6] is 106 % of control, the T/C under setting [7] is 108 % of control and the T/C under setting [8] is 123 % of control.
In the case of `CN(C)CCCC1(C#N)c2ccccc2CCc2ccccc21`, the T/C by setting is: (dose: 3.12 mg/kg/injection, schedule: Q01DX009 (ip), vehicle: saline) 110 % of control; (dose: 6.25 mg/kg/injection, schedule: Q01DX009 (ip), vehicle: saline) 97 % of control; under setting [1], 100 % of control; under setting [2], 110 % of control.
For `O=NN(CCF)C(=O)NC1CCS(=O)(=O)CC1`, the T/C reads like this: (dose: 3.75 mg/kg/injection, schedule: Q01DX001 (ip), vehicle: saline) 173 % of control; (dose: 7.5 mg/kg/injection, schedule: Q01DX001 (ip), vehicle: saline) 241 % of control; (dose: 15.0 mg/kg/injection, schedule: Q01DX001 (ip), vehicle: saline) 260 % of control; (dose: 30.0 mg/kg/injection, schedule: Q01DX001 (ip), vehicle: saline) 256 % of control; (dose: 60.0 mg/kg/injection, schedule: Q01DX001 (ip), vehicle: saline) 260 % of control.
Take `O=C(O)C1CC1.[Ag]`: the T/C by setting is: (dose: 0.78 mg/kg/injection, schedule: Q01DX009 (ip), vehicle: water) 114 % of control; (dose: 1.56 mg/kg/injection, schedule: Q01DX009 (ip), vehicle: water) 108 % of control; (dose: 3.12 mg/kg/injection, schedule: Q01DX009 (ip), vehicle: water) 108 % of control; (dose: 6.25 mg/kg/injection, schedule: Q01DX009 (ip), vehicle: water) 93 % of control; (dose: 12.5 mg/kg/injection, schedule: Q01DX009 (ip), vehicle: water) 91 % of control.
Consider `C=C(NC(C)=O)C(=O)CCC(N)=O`, for which the T/C runs as follows: (dose: 5.0 mg/kg/injection, schedule: Q01DX009 (ip), vehicle: saline) 92 % of control; (dose: 10.0 mg/kg/injection, schedule: Q01DX009 (ip), vehicle: saline) 102 % of control; (dose: 20.0 mg/kg/injection, schedule: Q01DX009 (ip), vehicle: saline) 97 % of control.
`c1ccc(Oc2ccccn2)cc1`: the T/C runs as follows: (dose: 50.0 mg/kg/injection, schedule: Q01DX009 (ip), vehicle: Klucel (hydroxypropylcellulose) (HPC)) 111 % of control; under setting [3], 117 % of control; under setting [4], 123 % of control.
`O=C1C=C2C(=CCOC2O)O1` (centres undefined): the T/C was 96 % of control (dose: 0.39 mg/kg/injection, schedule: Q01DX009 (ip), vehicle: Klucel (hydroxypropylcellulose) (HPC)); 106 % of control (dose: 0.75 mg/kg/injection, schedule: Q01DX009 (ip), vehicle: Klucel (hydroxypropylcellulose) (HPC)); 96 % of control (dose: 1.5 mg/kg/injection, schedule: Q01DX009 (ip), vehicle: Klucel (hydroxypropylcellulose) (HPC)); 86 % of control (dose: 3.0 mg/kg/injection, schedule: Q01DX009 (ip), vehicle: Klucel (hydroxypropylcellulose) (HPC)).
Turning to `Cc1cc(NS(=O)(=O)c2ccc(N=Nc3cc(N=Nc4ccc(S(=O)(=O)Nc5cc(C)nc(C)n5)cc4)c4c(NC(=O)C(Cl)Cl)cccc4c3OC(=O)C(Cl)Cl)cc2)nc(C)n1` (tested in a mixture with another compound), the T/C was 98 % of control (dose: 12.5 mg/kg/injection, schedule: Q01DX009 (ip), vehicle: suspension in saline); 95 % of control (dose: 25.0 mg/kg/injection, schedule: Q01DX009 (ip), vehicle: suspension in saline); 97 % of control (dose: 50.0 mg/kg/injection, schedule: Q01DX009 (ip), vehicle: suspension in saline); 95 % of control (dose: 100.0 mg/kg/injection, schedule: Q01DX009 (ip), vehicle: suspension in saline); 93 % of control (dose: 200.0 mg/kg/injection, schedule: Q01DX009 (ip), vehicle: suspension in saline); 87 % of control (dose: 400.0 mg/kg/injection, schedule: Q01DX009 (ip), vehicle: suspension in saline).
In the case of `CCC(CC)(CO)CO`, the T/C under setting [2] was 92 % of control; the T/C under setting [9] was 102 % of control; the T/C under setting [10] is 104 % of control; the T/C under setting [11] was 107 % of control; the T/C (dose: 400.0 mg/kg/injection, schedule: Q01DX009 (ip), vehicle: saline) was 97 % of control.
Turning to `COc1ccc(OC)c(/C=C/c2ccnc3ccccc23)c1`, the T/C is 113 % of control (dose: 50.0 mg/kg/injection, schedule: Q01DX009 (ip), vehicle: saline sonified); 107 % of control (dose: 100.0 mg/kg/injection, schedule: Q01DX009 (ip), vehicle: saline sonified); 113 % of control (dose: 200.0 mg/kg/injection, schedule: Q01DX009 (ip), vehicle: saline sonified).
Regarding `CC(NC(=O)OC(C)(C)C)C(=O)ON1C(=O)CCC1=O` (centres undefined), the T/C under setting [7] is 102 % of control and the T/C under setting [8] was 92 % of control.
In the case of `COC(CCC(C)C1OC23CC(OC(=O)CC(C(C)O)OC(=O)CC(O)(O2)C(C)CC3(C)C)C1C)c1cccc(O)c1` (centres undefined), the T/C is 103 % of control (dose: 12.5 micrograms/kg/injection, schedule: Q01DX009 (ip), vehicle: other); 101 % of control (dose: 25.0 micrograms/kg/injection, schedule: Q01DX009 (ip), vehicle: other); 97 % of control (dose: 50.0 micrograms/kg/injection, schedule: Q01DX009 (ip), vehicle: other); 101 % of control (dose: 100.0 micrograms/kg/injection, schedule: Q01DX009 (ip), vehicle: other).
As to `Cn1c(=O)c2c(ncn2CCO)n(C)c1=O`, the T/C under setting [10] is 120 % of control and the T/C under setting [11] was 122 % of control.
As for `CCOC(=O)C(NC(=O)NC)C(=O)OCC`, the T/C was 102 % of control (dose: 75.0 mg/kg/injection, schedule: Q01DX009 (ip), vehicle: Klucel (hydroxypropylcellulose) (HPC)); 103 % of control (dose: 150.0 mg/kg/injection, schedule: Q01DX009 (ip), vehicle: Klucel (hydroxypropylcellulose) (HPC)); 100 % of control (dose: 300.0 mg/kg/injection, schedule: Q01DX009 (ip), vehicle: Klucel (hydroxypropylcellulose) (HPC)).
In the case of `CC(C)COC(=O)c1ccc(NC(=O)Nc2ccccc2Cl)cc1`, the T/C under setting [5] was 100 % of control, the T/C under setting [6] was 93 % of control and the T/C under setting [7] was 97 % of control.
Regarding `CC(=O)CC(=O)Nc1ccc(-c2ccc(NC(=O)CC(C)=O)c(Cl)c2)cc1Cl`, the T/C was 87 % of control under setting [3] and 87 % of control under setting [4].
Turning to `CCOC(=O)c1cnc(NN)nc1Nc1cc(Cl)cc(Cl)c1`, the T/C by setting is: (dose: 6.25 mg/kg/injection, schedule: Q01DX009 (ip), vehicle: saline with Tween-80) 97 % of control; under setting [5], 101 % of control; under setting [6], 91 % of control.
As for `Cn1c(=O)c2c(ncn2C)n(C)c1=O`, the T/C was 116 % of control under setting [9], 103 % of control under setting [10] and 109 % of control under setting [11].
